Here are results for 24 compounds from patent US8314112B2 (Novartis AG, priority 2008, dated 2012).

SMILES strings stand for the structures.

This test deals with T1, human ALK5 (kinase domain, ALK5 T204D) (Homo sapiens, UniProt P36897, T204D).
T1 construct: The kinase domain of human ALK5 (amino acids 200-503); made in house; host or cells: insect cells (baculovirus)
T1 sequence (P36897 200-503 T204D): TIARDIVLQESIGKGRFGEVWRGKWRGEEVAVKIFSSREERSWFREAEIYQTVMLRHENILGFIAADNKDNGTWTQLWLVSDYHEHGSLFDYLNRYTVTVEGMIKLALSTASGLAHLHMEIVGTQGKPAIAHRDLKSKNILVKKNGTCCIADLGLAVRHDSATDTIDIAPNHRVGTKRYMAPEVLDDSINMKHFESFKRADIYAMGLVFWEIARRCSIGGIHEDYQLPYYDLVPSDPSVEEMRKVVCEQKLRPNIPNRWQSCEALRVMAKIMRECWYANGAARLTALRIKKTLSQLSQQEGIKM
Put plainly: ALK5 kinase assay ([33P] phosphate incorporation into casein). In kind it is biochemical. The note with it: casein substrate, 1 μM unlabelled ATP. On the procedure: The kinase activity of ALK5 is assessed by measuring radiolabelled phosphate [33P] incorporation in to the generic substrate, casein. The kinase domain of human ALK5 (amino acids 200-503) is fused to an N-terminal histidine tag. The kinase activity of ALK5 is rendered constitutive via point mutation at amino acid 204 (threonine to aspartate modification, ALK5 T204D) and the kinase construct is engineered to be expressed from a baculovirus expression construct in insect cells. The purified, recombinantly-expressed histidine-tagged ALK5 T204D protein is dissolved at 5.4 mg/ml in 50 mM Tris-HCl pH 8.0, 150 mM NaCl, 5 mM DTT. ALK5 T204D is dissolved to 2.5 μg/ml in assay buffer (Assay buffer: 20 mM Tris-HCl pH 7.4, 10 mM MgCl2, 2 mM MnCl2) on the day of use.
Test compounds and reference compounds are dissolved in assay buffer without DTT containing 5% (v/v) DMSO. Stock solutions of test and reference compounds are diluted in assay buffer with DTT (1.25 mM) containing 4.5% (v/v) DMSO. 10 μl of test or reference compound are added to the appropriate wells of 96 well U-bottomed plate. Total enzyme activity is determined by measuring ALK5 T204D activity in the absence of ALK5 kinase inhibitor reference compounds. Non-specific binding (NSB) is determined by measuring the activity of ALK5 T204D in the presence of ALK5 kinase inhibitor reference compounds. 10 μl of dephosphorylated casein stock solution (dephosphorylated casein is dissolved in ddH2O at 20 mg/ml) is added per well (200 μg/well final assay concentration). 20 μl of ALK5 T204D (2.5 μg/ml solution) is added per well (50 ng/well final assay concentration). The plates are left to incubate at room temperature for 10 minutes.
10 μl of ATP mix is added to the well to initiate the reaction (0.66 nM [^33P]ATP/1 μM unlabelled ATP/well final assay concentration). The ATP mix is prepared as follows, unlabelled ATP (3 mM) is dissolved in ddH2O and pH adjusted to 7.4. The stock concentration of [^33P]ATP is 10 μCi/μl. The appropriate volume of [^33P]ATP is added to unlabelled ATP solution such that the final assay concentration per well is 0.1 μCi. Following addition of the ATP mix, the plates are incubated at room temperature for 50 minutes. The kinase reaction is terminated by the addition of 50 μL Stop Buffer (20 mM Tris-HCl pH 7.4, 10 mM EDTA).
75 μl/well from the reaction plate is transferred to a Multiscreen-IP plate (MultiScreen-IP plates are prepared by added 50 μL of 70% (v/v) ethanol per well and incubated for 5 minutes at room temperature. The ethanol is removed by aspiration via a MultiScreen HTS Vaccum Manifold unit (Millipore, Cat no: MSVMHT500). The plates are washed twice by adding 200 μl/well ddH2O). The MultiScreen-IP plate is incubated at room temperature for 30 minutes to allowing binding of casein to the plate. The MultiScreen-IP plates are washed three times by adding 200 μl/well 100 mM phosphoric acid solution and the gasket is carefully removed from the back of the MultiScreen-IP plate and the plate dried in the oven for 30 minutes. The MultiScreen-IP plate is backsealed, 50 μL of Microscint™20 is added, then the plates are topsealed and radiolabelled casein detected and quantified on a TopCount™ plate-reader using the ^33P scintillation protocol.
`Cc1cccc(-c2cc(-c3cncc(-c4ccc(CO)cc4)c3)c3cc[nH]c3n2)n1` [Example 82, (4-{5-[6-(6-Methyl-pyridin-2-yl)-1H-pyrrolo[2,3-b]pyridin-4-yl]-pyridin-3-yl}-phenyl)-methanol] registered an IC50 of 12 nM.
In the case of `CSc1cncc(-c2nc(-c3cccc(C)n3)nc3[nH]ccc23)c1` [Example 94, 2-(6-Methyl-pyridin-2-yl)-4-(5-methylsulfanyl-pyridin-3-yl)-7H-pyrrolo[2,3-d]pyrimidine] it was 191 nM; in that of `Cc1cccc(-c2nc(-c3cncc(-c4ccc(C(=O)N5CCN(C)CC5)cc4)c3)c3cc[nH]c3n2)n1` [Example 9, (4-methyl-piperazin-1-yl)-(4-{5-[2-(6-methyl-pyridin-2-yl)-7H-pyrrolo[2,3-d]pyrimidin-4-yl]-pyridin-3-yl}-phenyl)-methanone], 13 nM.
As for `Cc1cccc(-c2nc(-c3cncc(N4CCN(C)CC4)c3)c3cc[nH]c3n2)n1` [Example 41, 4-[5-(4-Methyl-piperazin-1-yl)-pyridin-3-yl]-2-(6-methyl-pyridin-2-yl)-7H-pyrrolo[2,3-d]pyrimidine], the figure is 130 nM; as for `Cc1cccc(-c2cc(-c3cncc(-c4cccc(CO)c4)c3)c3cc[nH]c3n2)n1` [Example 93, (3-{5-[6-(6-Methyl-pyridin-2-yl)-1H-pyrrolo[2,3-b]pyridin-4-yl]-pyridin-3-yl}-phenyl)-methanol], 24 nM.
In the case of `Cc1cccc(-c2nc(-c3cncc(C4=CCNCC4)c3)c3cc[nH]c3n2)n1` [Example 101, 5-[2-(6-Methyl-pyridin-2-yl)-7H-pyrrolo[2,3-d]pyrimidin-4-yl]-1′,2′,3′,6′-tetrahydro-[3,4′]bipyridinyl], the midpoint of inhibition, the IC50, lay at 437 nM.
In the case of `CN1CCN(C(=O)c2ccc(-c3cncc(-c4nc(-c5ccccn5)nc5[nH]ccc45)c3)cc2)CC1` [Example 42, (4-Methyl-piperazin-1-yl)-{4-[5-(2-pyridin-2-yl-7H-pyrrolo[2,3-d]pyrimidin-4-yl)-pyridin-3-yl]-phenyl}-methanone] it was 17 nM; in that of `Cc1cccc(-c2nc(-c3cncc(-c4ccc(CN)cc4)c3)c3cc[nH]c3n2)n1` [Example 61, 4-{5-[2-(6-Methyl-pyridin-2-yl)-7H-pyrrolo[2,3-d]pyrimidin-4-yl]-pyridin-3-yl}-benzylamine], 29 nM; in that of `Cc1cccc(-c2nc(-c3cncc(-c4ccc(CN5CCN(C(C)C)CC5)cc4)c3)c3cc[nH]c3n2)n1` [Example 35, 4-{5-[4-(4-Isopropyl-piperazin-1-ylmethyl)-phenyl]-pyridin-3-yl}-2-(6-methyl-pyridin-2-yl)-7H-pyrrolo[2,3-d]pyrimidine], 44 nM.
In the case of `Cc1cccc(-c2nc(-c3cncc(-c4ccc(CNCC(=O)O)cc4)c3)c3cc[nH]c3n2)n1` [Example 150, (4-{5-[2-(6-Methyl-pyridin-2-yl)-7H-pyrrolo[2,3-d]pyrimidin-4-yl]-pyridin-3-yl}-benzylamino)-acetic acid] it was 17 nM; in that of `CNCc1cncc(-c2cncc(-c3cc(-c4cccc(C)n4)nc4[nH]ccc34)c2)c1` [Example 92, Methyl-{5′-[6-(6-methyl-pyridin-2-yl)-1H-pyrrolo[2,3-b]pyridin-4-yl]-[3,3′]bipyridinyl-5-ylmethyl}-amine], 103 nM; in that of `Cc1cccc(-c2cc(-c3cncc(C#CCN4CCOCC4)c3)c3cc[nH]c3n2)n1` [Example 158, 6-(6-Methyl-pyridin-2-yl)-4-[5-(3-morpholin-4-yl-prop-1-ynyl)-pyridin-3-yl]-1H-pyrrolo[2,3-b]pyridine], 27 nM.
In turn, `Cc1cccc(-c2cc(-c3cncc(-c4ccc(CN(C)CCO)cc4)c3)c3cc[nH]c3n2)n1` [Example 153, 2-[Methyl-(4-{5-[6-(6-methyl-pyridin-2-yl)-1H-pyrrolo[2,3-b]pyridin-4-yl]-pyridin-3-yl}-benzyl)-amino]-ethanol] came in with an IC50 of 11 nM.
As for `Cc1cccc(-c2cc(-c3cncc(-c4ccc(C(C)(C)N)cc4C)c3)c3cc[nH]c3n2)n1` [Example 164, 1-Methyl-1-(3-methyl-4-{5-[6-(6-methyl-pyridin-2-yl)-1H-pyrrolo[2,3-b]pyridin-4-yl]-pyridin-3-yl}-phenyl)-ethylamine], the figure is 6.3 nM; as for `Cc1cccc(-c2nc(-c3cncc(NC(=O)CCN)c3)c3cc[nH]c3n2)n1` [Example 50, 3-amino-N-{5-[2-(6-methyl-pyridin-2-yl)-7H-pyrrolo[2,3-d]pyrimidin-4-yl]-pyridin-3-yl}-propionamide], 149 nM; as for `Cc1cccc(-c2cc(-c3cncc(-c4ccc(C(C)(C)NCCO)cc4)c3)c3cc[nH]c3n2)n1` [Example 162, 2-[1-Methyl-1-(4-{5-[6-(6-methyl-pyridin-2-yl)-1H-pyrrolo[2,3-b]pyridin-4-yl]-pyridin-3-yl}-phenyl)-ethylamino]-ethanol], 7 nM.
As for `Cc1cccc(-c2nc(-c3cncc(-c4cccc(O)c4)c3)c3cc[nH]c3n2)n1` [Example 23, 3-{5-[2-(6-Methyl-pyridin-2-yl)-7H-pyrrolo[2,3-d]pyrimidin-4-yl]-pyridin-3-yl}-phenol], the figure is 14 nM; as for `Cc1cccc(-c2nc(-c3cncc(-c4nnn[nH]4)c3)c3cc[nH]c3n2)n1` [Example 104, 2-(6-Methyl-pyridin-2-yl)-4-[5-(1H-tetrazol-5-yl)-pyridin-3-yl]-7H-pyrrolo[2,3-d]pyrimidine], 1030 nM.
In the case of `Cc1cccc(-c2cc(-c3cncc(-c4cccc(C(C)(C)N)c4)c3)c3cc[nH]c3n2)n1` [Example 113, 1-Methyl-1-(3-{5-[6-(6-methyl-pyridin-2-yl)-1H-pyrrolo[2,3-b]pyridin-4-yl]-pyridin-3-yl}-phenyl)-ethylamine] it was 27 nM; in that of `Cc1cccc(-c2cc(-c3cncc(-c4ccc(CCC(=O)O)cc4)c3)c3cc[nH]c3n2)n1` [Example 159, 3-(4-{5-[6-(6-Methyl-pyridin-2-yl)-1H-pyrrolo[2,3-b]pyridin-4-yl]-pyridin-3-yl}-phenyl)-propionic acid], 6.5 nM.
Regarding `Cc1cccc(-c2cc(-c3cncc(-c4ccc(C(C)(C)N5CCOCC5)cc4)c3)c3cc[nH]c3n2)n1` [Example 161, 4-{5-[4-(1-Methyl-1-morpholin-4-yl-ethyl)-phenyl]-pyridin-3-yl}-6-(6-methyl-pyridin-2-yl)-1H-pyrrolo[2,3-b]pyridine], it took 19 nM to reach half-maximal inhibition (IC50). This IC50 lies about 2.9-fold higher than the previous one.
In the case of `Cc1cccc(-c2nc(-c3cncc(N4CCOCC4)c3)c3cc[nH]c3n2)n1` [Example 51, 2-(6-Methyl-pyridin-2-yl)-4-(5-morpholin-4-yl-pyridin-3-yl)-7H-pyrrolo[2,3-d]pyrimidine] it was 660 nM; in that of `CN1CCN(Cc2cccc(-c3cncc(-c4nc(-c5ccccn5)nc5[nH]ccc45)c3)c2)CC1` [Example 45, 4-{5-[3-(4-Methyl-piperazin-1-ylmethyl)-phenyl]-pyridin-3-yl}-2-pyridin-2-yl-7H-pyrrolo[2,3-d]pyrimidine], 19 nM.
As for `COC(=O)CNCc1ccc(-c2cncc(-c3nc(-c4cccc(C)n4)nc4[nH]ccc34)c2)cc1` [Example 149, (4-{5-[2-(6-Methyl-pyridin-2-yl)-7H-pyrrolo[2,3-d]pyrimidin-4-yl]-pyridin-3-yl}-benzylamino)-acetic acid methyl ester], the figure is 8 nM.

The term IC50 denotes the point on the concentration scale where inhibition reaches its midpoint. Low values mean inhibition by little substance, high ones a need for much substance.
